Experiments:
Assay type in all cases: in vivo
Details in all cases: lower rate of 250 g per hectare, evaluated after 13 days
Zea mays (ZEAMX) [1] = assay: Post-emergence Test (Table B2)
In short: (§1)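 Sprayed at 1000 g/ha unless otherwise stated onto pots sown in standard soil, using acetone/water (50:50) with 0.5% Tween 20. Glasshouse at 24/16 °C day/night, 14 h light, 65% humidity. Percentage plant damage scored 13 days after application.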

[2] = test system: Ipomoea hederacea (IPOHE); assay: Post-emergence Test (Table B2)
In short: as §1

[3] = test system: Echinochloa crus-galli (ECHCG); assay: Post-emergence Test (Table B2)
In short: as §1

Setaria faberi (SETFA) [4] = assay: Post-emergence Test (Table B2)
In short: as §1

[5] = test system: Amaranthus palmeri (AMAPA); assay: Post-emergence Test (Table B2)
In short: as §1

[6] = test system: Amaranthus retroflexus (AMARE); assay: Post-emergence Test (Table B2)
In short: as §1

[7] = test system: Ipomoea hederacea (IPOHE); assay: Pre-emergence Test (Table B1)
[8] = test system: Echinochloa crus-galli (ECHCG); assay: Pre-emergence Test (Table B1); design: key: 5=81-100%; 4=61-80%; 3=41-60%; 2=21-40%; 1=0-20%; 0=inactive
Zea mays (ZEAMX) [9] = assay: Pre-emergence Test (Table B1); design: key: 5=81-100%; 4=61-80%; 3=41-60%; 2=21-40%; 1=0-20%; 0=inactive
[10] = test system: Amaranthus palmeri (AMAPA); assay: Pre-emergence Test (Table B1)
Setaria faberi (SETFA) [11] = assay: Pre-emergence Test (Table B1); design: key: 5=81-100%; 4=61-80%; 3=41-60%; 2=21-40%; 1=0-20%; 0=inactive
[12] = test system: Amaranthus retroflexus (AMARE); assay: Pre-emergence Test (Table B1)

Row | SMILES | percentage damage caused to the plant, ZEAMX (Zea mays (ZEAMX) [1]) | percentage damage caused to the plant, IPOHE [2] | percentage damage caused to the plant, ECHCG [3] | percentage damage caused to the plant, SETFA (Setaria faberi (SETFA) [4]) | percentage damage caused to the plant, AMAPA [5] | percentage damage caused to the plant, AMARE [6] | percentage damage caused to the plant, IPOHE [7] | percentage damage caused to the plant, ECHCG [8] | percentage damage caused to the plant, ZEAMX (Zea mays (ZEAMX) [9]) | percentage damage caused to the plant, AMAPA [10] | percentage damage caused to the plant, SETFA (Setaria faberi (SETFA) [11]) | percentage damage caused to the plant, AMARE [12]
1 | CCn1c(C)c(-c2cc(C(=O)OC(C)C#N)c(Cl)cc2F)c(=O)c(C(=O)O)c1-c1ccc(Cl)c(Cl)c1 (stereo not drawn) [Compound 44, 5-[4-chloro-5-(1-cyanoethoxycarbonyl)-2-fluoro-phenyl]-2-(3,4-dichlorophenyl)-1-ethyl-6-methyl-4-oxo-pyridine-3-carboxylic acid] | 2 (2=21-40%) | 4 (4=61-80%) | 3 (3=41-60%) | 3 (3=41-60%) | 5 (5=81-100%) | 5 (5=81-100%) | 2 (2=21-40%) | 0 | 0 | 5 (5=81-100%) | 0 | 5 (5=81-100%)
2 | CCn1c(C)c(-c2cc(C(=O)OC3CC3)c(Cl)cc2F)c(=O)c(C(=O)O)c1-c1ccc(C#N)c(Cl)c1 [Compound 46, 2-(3-chloro-4-cyano-phenyl)-5-[4-chloro-5-(cyclopropoxycarbonyl)-2-fluoro-phenyl]-1-ethyl-6-methyl-4-oxo-pyridine-3-carboxylic acid] | 5 (5=81-100%) | 4 (4=61-80%) | 5 (5=81-100%) | 5 (5=81-100%) | 5 (5=81-100%) | 5 (5=81-100%) | 2 (2=21-40%) | 0 | 0 | 5 (5=81-100%) | 1 (1=0-20%) | 5 (5=81-100%)

From US20260060250A1, “HERBICIDAL PYRIDONE DERIVATIVES” (SYNGENTA CROP PROTECTION AG, priority 2022, published 2026)
